# Assay results: patent publication EP0386076B1, “PHOSPHORYLED DERIVATIVES OF CARDIODILATINE/ANF PEPTIDES” (FORSSMANN, Wolf-Georg, Prof. Dr. med., priority 1987, dated 1993)
# Ends that are not written are not given here.
# What was measured:
# [1] = system: c-AMP-abhängiger Proteinkinase; settings: peptide as substrate of c-AMP-abhängiger Proteinkinase; read-out: Michaeliskonstante Km; cited from earlier work
# [2] = system: Muskelstreifen von Kaninchenaorta; experiment: Relaxation of norepinephrine-precontracted rabbit aorta muscle strips in an organ bath; set-up: species or system Neuseeland-Kaninchen
# From the text: Muskelstreifen von Kaninchenaorta wurden zunächst mit einer Lösung von Norepinephrin (10⁻⁷ M) kontrahiert. Nachdem sich konstante Bedingungen eingestellt hatten, wurden die Peptide hinzugefügt (Position des Pfeils).
# Die Abbildung 6 zeigt die Reaktion von Kaninchenaorta-Muskelstreifen auf die schrittweise Zugabe von nicht phosphoryliertem, phosphoryliertem und danach wieder nicht phosphoryliertem Alpha-hANaP (CDD-28). Die Verbindungen wurden jeweils so zugegeben, daß sie im Untersuchungsbad in einer Endkonzentration von 0,3 x 10⁻⁹ M vorlagen.
# Aortae von Neuseeland-Kaninchen wurden präpariert. Die Muskelspannung wurde an Muskelstreifen in einem Organbad, enthaltend physiologische Kochsalzlösung, gemessen. Die Streifen wurden vorkontrahiert mit einer Lösung von 10⁻⁶ M Norepinephrin, danach bei vollständiger Relaxation. Für den Assay wurde eine weitere Kontraktion mit 10⁻⁷ M Norepinephrin ausgelöst. Nachdem konstante Kontraktionsbedingungen erreicht waren, wurden die Peptide appliziert.
# Zur Kontrolle wurde nicht phosphoryliertes Alpha-hANaP unter gleichen Bedingungen inkubiert, jedoch ohne Anwesenheit von ATP. Phosphoryliertes und nicht phosphoryliertes Alpha-hANaP wurde zu den vorkontrahierten Kaninchenaorta-Muskelstreifen gegeben, so daß sie in einer Endkonzentration von 0,3 x 10⁻⁹ M vorlagen. […]
Substance,Km [1],"relatives Relaxationsvermögen ([2]; Abbildung 7, phosphorylated versus non-phosphorylated form at corresponding concentration)","Relaxationsaktivität ([2]; Beispiel 6, tested analogously to Beispiel 5, several concentrations)"
Arg¹⁰¹-Tyr¹²⁶,0.5 µM,,
"phosphorylierte CDD-32: CDD-32 (Urodilatin, ANF/CDD-95-126) phosphorylated according to Beispiel 1; Formel I with R = Aminosäuren 95-98 (TAPRSLRRSSCFGGRMDRIGAQSGLGCNSFRY; ends and bridges not checked; also: phosphorylated (phosphate group), site not given here; UniProt P01160 120-151, looked up, fragment)",,deutlich geringeres Relaxationsvermögen,deutlich geringere Relaxation
